In experiment [1] the test system is human bone marrow mesenchymal stem cells (BM-MSC). In words: VEGF secretion by MSC, ELISA of conditioned media. It is filed as cell-based. The protocol: A single vial of human bone marrow-derived MSC was expanded and seeded into twenty (20) wells of 6-well plates using standard growth medium. At 95-99% confluency, cells were thoroughly washed with phosphate-buffered saline (PBS). Cells were then exposed to media containing 0, 0.1, 1.0, 10, or 100 μg/mL of treprostinil (n=4 wells for each concentration). After 24 hours of culture, the conditioned media was collected from each replicate and analyzed for Vascular Endothelial Growth Factor (VEGF) protein by enzyme-linked immunosorbent assay (ELISA). The goal of this experiment was to determine the optimal concentration of treprostinil needed to elicit a cellular response in MSC (using VEGF as a read out). A follow-up experiment to Example 1 was conducted to determine if treprostinil concentrations above 100 μg/mL affected MSC secretion of VEGF. As before, a single vial (same lot/batch) of bone marrow-derived MSC was expanded to thirty (30) wells of 6-well plates using standard growth medium. At 95-99% confluency, cells were thoroughly washed with PBS. Cells were then exposed to media containing 0, 100, 200, 300, or 400 μg/mL of treprostinil (n=6 wells for each concentration). Conditioned media was assayed for VEGF by ELISA after 24 hours of treprostinil exposure (n=4 replicates). Cells from those replicates were lysed, and RNA was extracted to determine VEGF-A gene expression by qRT-PCR. Cells from the remaining two (2) replicates were trypsinized, and assayed for cell viability by trypan blue exclusion. Cell culture supernatant was assayed for VEGF protein by ELISA (FIG. 3A, n=4). Cell lysates from those cultures were assayed for VEGF-A gene expression by qRT-PCR, and normalized to the control value (FIG. 3B, n=4). In both figures, error bars represent the standard deviation in each test group.
For orientation: ELISA stands for enzyme-linked immunosorbent assay.

The subject of the next experiment is human bone marrow MSC. Nature of the experiment: VEGF-A gene expression in MSC by qRT-PCR. It is filed as cell-based. Here is the method: Conditioned media was assayed for VEGF by ELISA after 24 hours of treprostinil exposure (n=4 replicates). Cells from those replicates were lysed, and RNA was extracted to determine VEGF-A gene expression by qRT-PCR. Cells from the remaining two (2) replicates were trypsinized, and assayed for cell viability by trypan blue exclusion. Cell culture supernatant was assayed for VEGF protein by ELISA (FIG. 3A, n=4). Cell lysates from those cultures were assayed for VEGF-A gene expression by qRT-PCR, and normalized to the control value (FIG. 3B, n=4). In both figures, error bars represent the standard deviation in each test group. To characterize the effect of treprostinil on MSC, cells were analyzed by qRT-PCR and microarray to identify changes in gene expression (4). Cell culture supernatant media was assayed for selected inflammatory cytokines by bead-based immunoassays (2). Secreted vesicles were isolated from cell culture supernatant, and assayed for RNA content by qRT-PCR (7). Vesicles were also assayed for size and concentration by tunable resistive pulse sensing, or TRPS (7) (refer to Example 4).

These results are taken from US12274684B2, “Treatment of vasculopathy with prostacyclin and mesenchymal stem cells” (United Therapeutics Corporation, priority 2013, dated 2025).

Structures are written as SMILES. Entries after “also recorded” stand apart in the source; their conditions may differ.

Turning to `CCCCC[C@H](O)CC[C@@H]1[C@H]2Cc3cccc(OCC(=O)O)c3C[C@H]2C[C@H]1O` [treprostinil], in experiment [1] (100 μg/mL, 24 h (Example 2)), the “VEGF secretion, fold increase vs untreated controls” value is approximately 2 fold. In addition, the VEGF secretion, fold of control values in experiment [1] (200 μg/mL, 24 h (Example 2)) is 3 fold. Moreover, the “VEGF secretion (ELISA)” value in experiment [1] (0.1, 1.0, 10, 100 μg/mL, 24 h, vs 0 μg/mL (Example 1, FIG. 2)) was “no statistically significant differences; also recorded: slight trend of increased VEGF secretion”. The “VEGF secretion at higher concentrations” value in experiment [1] (above 200 μg/mL (300, 400 μg/mL), 24 h) is recorded as “did not increase above this value”. In addition, in the experiment on human bone marrow MSC (100 μg/mL, 24 h), the “VEGF-A gene expression vs untreated controls” value is on record as “not significantly different from untreated controls”. Further, the “VEGF-A gene expression, fold increase” value with human bone marrow MSC (200 μg/mL, 24 h) was “over 5 fold”. The “VEGF-A expression, fold over untreated controls (qRT-PCR)” value in the experiment with human bone marrow MSC (250 μg/mL, 24 h (FIG. 8, upper panel)) is given as approximately 3.5 fold.
